# Laboratory results from patent publication US20160220738A1, “PROGESTERONE-CONTAINING COMPOSITIONS AND DEVICES” (priority 2007, published 2016).
# “Also recorded” adds a separate entry of the source.
# Key:
# [1] = system: platelet suspensions or whole blood; settings: in vitro; cited from earlier work
# [2] = system: ECs; settings: cited from earlier work
# [3] = system: vascular SMCs; settings: cited from earlier work
# [4] = system: human aortic smooth muscle cells; test: Human aortic smooth muscle cell proliferation (Example 10); assay type: cell-based; settings: HASMC, progesterone 10 μg/ml; for smooth muscle cell proliferation (in words): up to 8 days
# Description: For cell cultures grown longer than 3 days, culture medium was changed twice weekly, according to standard protocols in the art, and included antibiotics and other standard additives as appropriate.
# (§1) Cell cultures were maintained at 37° C. in an atmosphere containing 5% carbon dioxide. Appropriate precautions were taken to prevent accelerated breakdown, including protection of the cell cultures from light.
# At each timepoint, triplicate samples were analyzed via growth measurements. The rate of cell proliferation was assayed by counting the number of cells across the 8 day growth period. Absolute cell density was measured with a Coulter Counter. Cell viability was determined by trypan blue staining.
# [5] = system: human coronary smooth muscle cell (HCSMC); test: Human coronary smooth muscle cell proliferation (Example 14); assay type: cell-based; settings: for difference in growth of progesterone treated SMC versus control: 30 μg/ml; for Average Number of Cells/dish / SMC proliferation (in words): HCSMC, progesterone 30 μg/ml; for SMC proliferation (in words): days 1, 3, 5
# Description: In addition, cells will be grown for 5 and 7 days. For cell cultures grown longer than 3 days, culture medium is changed twice weekly, according to standard protocols in the art, and includes antibiotics and other standard additives as appropriate.
# as §1
# Cultured human coronary endothelial and smooth muscle cells were obtained from commercial services. […] Dilutions were prepared using ethanol such that the total quantity of ethanolic drug volume added to any experimental culture was 10 μL. For proliferation and apoptosis studies, EC or SMC was seeded in multiple culture wells at a density of 5,000 cells/cm^2. […] Cell counts were conducted at days 1, 3, and 5 and will be conducted at day 7, using a Coulter counter. From these counts, the influence of the drug concentration on cell growth rate was calculated.
# Sampling and analysis of SMC is performed as follows. At each time point, triplicate samples are analyzed for growth measurements. The rate of cell proliferation is assayed by counting the number of cells across the 8 day growth period. Absolute cell density is measured with a Coulter Counter. Cell viability is determined by a live-dead cell apoptosis assay (Molecular Probes, Inc.).
# [6] = system: human coronary endothelial cells (HCEC); test: Human coronary endothelial cell growth (Example 14); assay type: cell-based
# Description: In addition, cells will be grown for 5 and 7 days. For cell cultures grown longer than 3 days, culture medium is changed twice weekly, according to standard protocols in the art, and includes antibiotics and other standard additives as appropriate. […] Addition of the progesterone-treated or control (untreated) medium to the cells was counted as day 0. […] Cell cultures were maintained at 37° C. in an atmosphere containing 5% carbon dioxide. Appropriate precautions were taken to prevent accelerated breakdown, including protection of the cell cultures from light. Cultured human coronary endothelial and smooth muscle cells were obtained from commercial services. […] Dilutions were prepared using ethanol such that the total quantity of ethanolic drug volume added to any experimental culture was 10 μL. For proliferation and apoptosis studies, EC or SMC was seeded in multiple culture wells at a density of 5,000 cells/cm^2. […] Cell counts were conducted at days 1, 3, and 5 and will be conducted at day 7, using a Coulter counter. From these counts, the influence of the drug concentration on cell growth rate was calculated. Sampling and analysis of endothelial cells is performed as follows. At each time point, triplicate samples are analyzed for growth measurements. The rate of cell proliferation is assayed by counting the number of cells across the 8 day growth period. Absolute cell density is measured with a Coulter Counter. Cell viability is determined by a live-dead cell apoptosis assay (Molecular Probes, Inc.).
# [7] = system: human infragenicular VSMCs; test: Human infragenicular VSMC proliferation under high glucose and insulin (Example 12); assay type: cell-based; settings: progesterone 10 ng/mL, glucose 100/200 mg/dL, insulin 0/100 ng/mL, day 6
# Description: Methods are according to 2002 J Vasc Surg 36, 833-838, except as otherwise noted.
# Human infragenicular VSMCs are isolated from the tibial arteries of male patients with diabetes undergoing lower extremity amputation. Immunocytochemical studies with confocal microscopy are performed for progesterone receptor identification in these VSMCs. Cells are grown to subconfluence, followed by exposure to deprived media with various glucose (100 and 200 mg/dL) and insulin (no insulin and 100 ng/mL) concentrations. […] Cell count and methyl-3H-thymidine incorporation are used to determine cellular proliferation. Cell count with hemocytometry is performed on day 6. DNA synthesis as reflected through methyl-3H-thymidine incorporation is measured at 24 hours.
# [8] = system: V189 (VEGF189); settings: perivascular decidual endometrial cells, mid-late secretory phase and early gestation; cited from earlier work
# [9] = system: primary astrocyte cultures; test: Glucose transport inhibition in astrocytes (Example 13); assay type: cell-based, rat; settings: 24 hours exposure
# [10] = system: human aortic endothelial cells (HAEC) or U937 monocytic cells; settings: d-alpha-tocopherol 20, 40, 60 micromol/l for 20 h, IL-1beta stimulated; cited from earlier work
# [11] = system: HAEC; settings: cited from earlier work
compound,measurement,setting,value
"CCCCCC/C=C/C=C\CCCCCCCC(=O)O [C18:2c9t11, rumenic acid]",platelet aggregation,[1],inhibit platelet aggregation
same,EC production of PAF,[2],inhibit EC production of PAF
same,secretion of eicosanoids (PGI2 and PGE2),[3],attenuate secretion of eicosanoids
CCCCCC/C=C/C=C/CCCCCCCC(=O)O [C18:2t9t11],platelet aggregation,[1],inhibit platelet aggregation
CCCCC/C=C\C=C\CCCCCCCCC(=O)O [C18:2t10c12],platelet aggregation,[1],inhibit platelet aggregation
same,EC production of PAF,[2],inhibit EC production of PAF
same,secretion of eicosanoids (PGI2 and PGE2),[3],attenuate secretion of eicosanoids
"CC(=O)[C@H]1CC[C@H]2[C@@H]3CCC4=CC(=O)CC[C@]4(C)[C@H]3CC[C@]12C [Progesterone, pregn-4-ene-3,20-dione]",Average number of cells per dish,[4]; day 1,7902 cells per dish
same,Average number of cells per dish,[4]; day 3,14871 cells per dish
same,Average number of cells per dish,[4]; day 6,17618 cells per dish
same,Average number of cells per dish,[4]; day 8,20018 cells per dish
same,smooth muscle cell proliferation (in words),[4],decrease SMC's compared to control in a dose response fashion
same,smooth muscle cell proliferation (in words),[4]; listed as progesterone,inhibited smooth muscle cell proliferation
same,difference in growth of progesterone treated SMC versus control,"[5]; day 1, inhibition",12.1%
same,difference in growth of progesterone treated SMC versus control,"[5]; day 3, inhibition",20.8%
same,difference in growth of progesterone treated SMC versus control,"[5]; day 5, inhibition",53.7%
same,Average Number of Cells/dish,[5]; day 1,7092 Cells/dish
same,Average Number of Cells/dish,[5]; day 3,9492 Cells/dish
same,Average Number of Cells/dish,[5]; day 5,10844 Cells/dish
same,SMC proliferation (in words),[5],decrease SMC's compared to control in a dose response fashion
same,SMC proliferation (in words),[5]; listed as progesterone,showed inhibition of SMC on the first day of treatment; also recorded: inhibits SMC proliferation
same,increase in growth of the progesterone treated EC versus control,"[6]; 30 μg/ml, day 1",5.3%
same,difference in growth of progesterone treated EC versus control,"[6]; 30 μg/ml, day 3, increase",27.5%
same,difference in growth of progesterone treated EC versus control,"[6]; 30 μg/ml, day 5, increase",29.3%
same,Average Number of Cells/dish,"[6]; HCEC, progesterone 30 μg/ml, day 1",6207 Cells/dish
same,Average Number of Cells/dish,"[6]; HCEC, progesterone 30 μg/ml, day 3",7227 Cells/dish
same,Average Number of Cells/dish,"[6]; HCEC, progesterone 30 μg/ml, day 5",8658 Cells/dish
same,endothelial cell growth (in words),"[6]; HCEC, progesterone 30 μg/ml, days 1, 3, 5",promoted growth of the EC both on the first and third days; also recorded: enhanced endothelial cell growth; also recorded: increases endothelial cells
same,cellular proliferation by cell count,[7],significantly inhibited cellular proliferation
same,V189 expression,[8],selectively increases
C[C@]12CCC(=O)C=C1CC[C@@H]1[C@@H]2[C@@H](O)C[C@@]2(C)[C@H]1CC[C@]2(O)C(=O)CO [cortisol],concentration inhibiting glucose transport,[9],1 µM
"Cc1c(C)c2c(c(C)c1O)CC[C@@](C)(CCC[C@H](C)CCC[C@H](C)CCCC(C)C)O2 [vitamin E, d-alpha-tocopherol]",adhesion of HAEC and U937 monocytic cells,[10],inhibited their adhesion
same,IL-1beta-induced productions of MCP-1 and IL-8,"[11]; 20, 40, 60 micromol/l",dose-dependently suppressed
same,"IL-1beta-stimulated expression of ICAM-1, VCAM-1 and E-selectin","[11]; 20, 40, 60 micromol/l",suppressed
same,IL-8 production,[11]; 60 micromol/l,reduced IL-8 production significantly
same,IL-1beta-induced production of IL-6,[11]; at the doses used,dose-dependently inhibited
same,spontaneous production of IL-6,[11]; at the doses used,did not significantly change
same,spontaneous production of MCP-1,[11]; up to 60 micromol/l,not effective
